Results as given in article PMC5350174, “Orai and TRPC channel characterization in FcεRI‐mediated calcium signaling and mediator secretion in human mast cells” (Physiological Reports, 2017).
Each block holds one compound with its values, some of them ahead of it.

Legend:
Format in all cases: cell-based
TRPC6 [1] = biological target: T1, TRPC6 (Homo sapiens, UniProt Q9Y210); assay: Fura-2 calcium imaging in HEK-TRPC6 cells, inhibition of GSK-2934A-induced signal; parameters: human TRPC6 stably expressed in HEK cells
T1 sequence (Q9Y210 1-931): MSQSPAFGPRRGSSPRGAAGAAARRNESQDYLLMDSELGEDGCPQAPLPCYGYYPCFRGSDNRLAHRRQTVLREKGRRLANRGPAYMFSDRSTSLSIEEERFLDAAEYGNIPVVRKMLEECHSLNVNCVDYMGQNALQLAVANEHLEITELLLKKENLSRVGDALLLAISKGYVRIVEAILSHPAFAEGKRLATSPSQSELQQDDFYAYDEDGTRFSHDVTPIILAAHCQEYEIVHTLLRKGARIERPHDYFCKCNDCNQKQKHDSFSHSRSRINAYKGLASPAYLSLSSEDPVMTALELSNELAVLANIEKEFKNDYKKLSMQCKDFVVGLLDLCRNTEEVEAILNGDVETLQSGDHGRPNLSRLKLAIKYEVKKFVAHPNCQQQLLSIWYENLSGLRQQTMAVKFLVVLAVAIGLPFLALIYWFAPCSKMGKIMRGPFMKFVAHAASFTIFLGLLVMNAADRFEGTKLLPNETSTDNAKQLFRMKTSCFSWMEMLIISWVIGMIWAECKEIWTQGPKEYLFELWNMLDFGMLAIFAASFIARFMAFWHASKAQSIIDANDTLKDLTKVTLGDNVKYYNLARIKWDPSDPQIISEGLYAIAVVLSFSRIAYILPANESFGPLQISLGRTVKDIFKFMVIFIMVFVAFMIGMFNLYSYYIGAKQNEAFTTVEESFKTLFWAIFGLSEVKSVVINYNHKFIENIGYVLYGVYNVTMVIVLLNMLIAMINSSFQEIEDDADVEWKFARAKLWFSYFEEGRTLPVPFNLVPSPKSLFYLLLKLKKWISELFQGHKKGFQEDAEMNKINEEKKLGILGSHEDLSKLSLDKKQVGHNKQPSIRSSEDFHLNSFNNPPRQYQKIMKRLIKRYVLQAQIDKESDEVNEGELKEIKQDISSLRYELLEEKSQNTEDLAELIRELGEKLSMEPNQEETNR

TRPC6 [2] = biological target: T1, TRPC6; assay: Fura-2 calcium imaging in HEK-TRPC6 cells; also whole-cell patch clamp of hTRPC6 in HEK293; parameters: human TRPC6 expressed in HEK cells
Orai1 = biological target: T2, Orai1 (Homo sapiens, UniProt Q96D31); assay: ICRAC current inhibition in HEK cells over-expressing Orai1/STIM1 (data not shown); conditions: HEK293; read-out: % inhibition at 10 μmol/L
T2 construct: Orai1/STIM1 over-expressed in HEK cells; with STIM1
T2 sequence (Q96D31 whole entry): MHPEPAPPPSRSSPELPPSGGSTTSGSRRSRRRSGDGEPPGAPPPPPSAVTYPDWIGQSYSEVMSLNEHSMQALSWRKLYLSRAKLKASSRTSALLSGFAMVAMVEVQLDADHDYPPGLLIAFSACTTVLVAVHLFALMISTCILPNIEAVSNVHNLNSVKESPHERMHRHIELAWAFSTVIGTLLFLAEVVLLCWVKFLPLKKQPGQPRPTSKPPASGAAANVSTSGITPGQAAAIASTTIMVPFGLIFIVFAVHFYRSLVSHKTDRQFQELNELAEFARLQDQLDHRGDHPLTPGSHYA
T2 sequence (Q13586 23-685 partner): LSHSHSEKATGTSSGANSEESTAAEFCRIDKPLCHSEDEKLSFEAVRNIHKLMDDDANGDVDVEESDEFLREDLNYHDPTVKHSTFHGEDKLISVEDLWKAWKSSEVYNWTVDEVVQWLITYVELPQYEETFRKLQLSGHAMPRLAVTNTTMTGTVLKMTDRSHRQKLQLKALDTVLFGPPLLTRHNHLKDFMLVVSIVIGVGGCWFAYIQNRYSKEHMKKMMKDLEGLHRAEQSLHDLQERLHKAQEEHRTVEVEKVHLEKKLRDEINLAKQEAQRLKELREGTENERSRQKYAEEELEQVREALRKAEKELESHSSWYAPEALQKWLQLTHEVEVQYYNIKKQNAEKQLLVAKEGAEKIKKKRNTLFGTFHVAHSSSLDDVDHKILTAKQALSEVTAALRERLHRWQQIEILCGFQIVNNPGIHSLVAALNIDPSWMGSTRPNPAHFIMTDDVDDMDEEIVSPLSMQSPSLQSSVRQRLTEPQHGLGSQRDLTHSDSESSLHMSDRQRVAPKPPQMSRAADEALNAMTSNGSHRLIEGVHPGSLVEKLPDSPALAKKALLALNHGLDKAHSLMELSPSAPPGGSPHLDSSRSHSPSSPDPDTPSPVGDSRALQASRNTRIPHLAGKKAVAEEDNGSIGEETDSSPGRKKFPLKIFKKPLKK

IC50 (TRPC6 [1]): 7.8 pIC50
SMILES: Cc1sc(Nc2ccc(Cl)cc2F)nc1C(=O)N1CCC[C@H](C)[C@@H]1C [GSK-3503A, GSK2833503A]

EC50 (TRPC6 [2]): 6.6 pEC50
SMILES: O=C(c1cc2c(s1)CCCCC2)N1CCC(n2c(=O)[nH]c3ccccc32)CC1 [GSK-2934A, GSK1702934A]

inhibition at 10 µM (Orai1): 94 ± 3%
SMILES: COc1ccc(OC)c(-c2ccc(NC(=O)c3ccncc3F)cc2)c1 [Synta66]
